According to ChEMBL document CHEMBL3045807, “Synthesis of novel pyrazolyl tetrazoles as selective COX-2 inhibitors” (Med Chem Res, 2013):

Columns and labels:
Rattus norvegicus [1] = test: Ulcerogenic activity against fasted albino Rattus norvegicus (rat) assessed as ulcer index at 100 mg/kg, po administered QD for 3 days measured on day 4; format: toxicity, organism-based; design: dose 100 mg/kg, route oral; details: in vivo, 72 h
Ovis aries = species on record: Ovis aries; test: Selectivity ratio of IC50 for Ovis aries (sheep) COX2 to IC50 for ovine COX1
Rattus norvegicus [2] = test: Ulcerogenic activity against fasted albino Rattus norvegicus (rat) assessed as ulcer index at 50 mg/kg, po administered QD for 3 days measured on day 4; format: toxicity, organism-based; design: dose 50 mg/kg, route oral; details: in vivo, 72 h
Rattus norvegicus [3] = test: Anti-inflammatory activity in albino Rattus norvegicus (rat) assessed as carrageenan-induced paw edema volume at 20 mg/kg, po administered 1 hr prior to carrageenan-challenge measured at 0.5 hr (reference value: 2.5 +/- 0.02 ml); format: functional
Rattus norvegicus [4] = test: Anti-inflammatory activity in albino Rattus norvegicus (rat) assessed as inhibition of carrageenan-induced paw edema at 20 mg/kg, po administered 1 hr prior to carrageenan-challenge measured at 3 hr relative to control; format: functional
Rattus norvegicus [5] = test: Anti-inflammatory activity in albino Rattus norvegicus (rat) assessed as carrageenan-induced paw edema volume at 20 mg/kg, po administered 1 hr prior to carrageenan-challenge measured at 2 hr (reference value: 4.25 +/- 0.07 ml); format: functional
Rattus norvegicus [6] = test: Anti-inflammatory activity in albino Rattus norvegicus (rat) assessed as carrageenan-induced paw edema volume at 20 mg/kg, po administered 1 hr prior to carrageenan-challenge measured at 1 hr (reference value: 3.75 +/- 0.01 ml); format: functional

`COc1ccc(-c2nn(-c3ccccc3)cc2-c2nn[nH]n2)cc1` was tested, and the UI (Rattus norvegicus [1]) was 14.22.

`Clc1ccc(-c2nn(-c3ccccc3)cc2-c2nn[nH]n2)cc1` gave a UI (Rattus norvegicus [1]) of 13.9.

For `Cc1ccc(-c2cc(C(F)(F)F)nn2-c2ccc(S(N)(=O)=O)cc2)cc1` [CELECOXIB], the Ratio IC50 (Ovis aries) was 0.02 and the UI (Rattus norvegicus [2]) was 12.51.

In the case of `O=C([O-])Cc1ccccc1Nc1c(Cl)cccc1Cl.[Na+]` [DICLOFENAC SODIUM], the Activity (Rattus norvegicus [3]) is reported as 1.67 mL, the UI (Rattus norvegicus [2]) is reported as 17.02 and the inhibition in vivo at 20 mg/kg (Rattus norvegicus [4]) is reported as 88%. It also gave an Activity (Rattus norvegicus [5]) of 0.25 mL and an Activity (Rattus norvegicus [6]) of 1.15 mL.
